Key:
MDA-MB-436 = assay: CTG experiment for cell viability (CellTiter-Glo, 96-well plate, 7 days); assay type: cell-based; settings: Homo sapiens, MDA-MB-436, 168 h, MDA-MB-436 cells, 7 days culture with compound
Outline: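 MDA-MB-436 cells in DMEM were plated in 96-well format, treated with compounds, and cultured 7 days at 37°C. After removing the medium, cells were given PBS plus CellTiter-Glo reagent, incubated 10 min at room temperature, and luminescence was read. Curves were fitted as for the enzyme assay.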

[1] = molecular target: T1, Recombinant human His6-USP1/His6-UAF1 complex protein (Homo sapiens, UniProt O94782); assay: In vitro inhibitory activity against USP1 (Ubiquitin Rhodamine 110 fluorescence detection, 384-well plate); assay type: biochemical; settings: Ub-Rho substrate, 1 hour pre-incubation, read after 30 minutes
T1 construct: His6; purchased R&D E-568-050
T1 sequence (O94782 whole entry): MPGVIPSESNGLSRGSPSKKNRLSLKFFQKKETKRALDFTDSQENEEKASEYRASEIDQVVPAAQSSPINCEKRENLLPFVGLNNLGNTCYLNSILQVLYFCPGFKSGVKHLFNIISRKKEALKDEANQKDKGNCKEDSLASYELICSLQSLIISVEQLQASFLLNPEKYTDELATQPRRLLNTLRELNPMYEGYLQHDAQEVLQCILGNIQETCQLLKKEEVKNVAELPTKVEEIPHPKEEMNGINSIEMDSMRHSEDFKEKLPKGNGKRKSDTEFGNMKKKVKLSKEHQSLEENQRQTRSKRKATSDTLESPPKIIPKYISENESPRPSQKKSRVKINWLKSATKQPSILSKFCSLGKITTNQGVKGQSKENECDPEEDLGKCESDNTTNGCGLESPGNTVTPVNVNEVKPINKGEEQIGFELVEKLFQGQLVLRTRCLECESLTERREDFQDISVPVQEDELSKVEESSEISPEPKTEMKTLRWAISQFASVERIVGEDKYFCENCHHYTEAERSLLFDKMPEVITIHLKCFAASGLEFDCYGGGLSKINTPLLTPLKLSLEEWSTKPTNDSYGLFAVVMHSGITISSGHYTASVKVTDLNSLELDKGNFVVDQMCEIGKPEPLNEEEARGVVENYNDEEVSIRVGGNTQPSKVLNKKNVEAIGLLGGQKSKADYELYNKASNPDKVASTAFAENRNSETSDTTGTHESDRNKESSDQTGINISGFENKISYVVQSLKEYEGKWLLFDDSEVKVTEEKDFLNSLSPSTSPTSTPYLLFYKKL
T1 sequence (Q8TAF3 whole entry partner): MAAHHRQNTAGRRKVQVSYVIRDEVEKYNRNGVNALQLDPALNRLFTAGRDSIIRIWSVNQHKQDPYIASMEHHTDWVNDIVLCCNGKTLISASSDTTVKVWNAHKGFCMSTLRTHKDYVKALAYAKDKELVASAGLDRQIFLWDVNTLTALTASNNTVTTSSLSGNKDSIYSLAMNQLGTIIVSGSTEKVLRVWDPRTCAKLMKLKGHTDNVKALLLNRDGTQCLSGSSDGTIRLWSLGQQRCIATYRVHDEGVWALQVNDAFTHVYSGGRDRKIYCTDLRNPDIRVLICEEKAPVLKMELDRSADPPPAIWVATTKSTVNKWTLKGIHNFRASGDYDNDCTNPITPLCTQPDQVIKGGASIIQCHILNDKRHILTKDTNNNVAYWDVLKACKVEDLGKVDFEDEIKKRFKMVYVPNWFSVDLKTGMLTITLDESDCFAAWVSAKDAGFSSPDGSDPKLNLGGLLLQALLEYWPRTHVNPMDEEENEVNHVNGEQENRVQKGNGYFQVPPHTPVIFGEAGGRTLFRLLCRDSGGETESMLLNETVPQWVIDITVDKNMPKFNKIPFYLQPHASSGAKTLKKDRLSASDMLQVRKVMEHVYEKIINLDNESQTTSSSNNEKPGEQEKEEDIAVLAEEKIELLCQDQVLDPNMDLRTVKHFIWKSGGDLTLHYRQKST
Outline: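 Fluorescence assay measuring inhibition of recombinant human His6-USP1/His6-UAF1 complex with Ubiquitin-Rhodamine 110 substrate. Compounds held as 50 mM stocks in 100% DMSO and dispensed by acoustic transfer into modified Tris assay buffer.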

| SMILES | IC50 (MDA-MB-436) [nM] | IC50 [1] [nM] |
| --- | --- | --- |
| COc1ncnc(C2CC2)c1-c1ncc(OC(F)F)c(NCc2ccc(-n3nc(C(F)(F)F)cc3C)cc2)n1 [Example 135, 4'-Cyclopropyl-5-(difluoromethoxy)-6'-methoxy-N-(4-(5-methyl-3-(trifluoromethyl)-1H-pyrazol-1-yl)benzyl)-[2,5'-bipyrimidin]-4-amine] | 15.8 | 3.2 |
| COc1cnc(-c2c(OC)ncnc2C2CC2)nc1NCc1ccc(-c2nc(C)cn2C(F)F)cc1 [Example 105, 4'-Cyclopropyl-N-(4-(1-(difluoromethyl)-4-methyl-1H-imidazol-2-yl)benzyl)-5,6'-dimethoxy-[2,5'-bipyrimidin]-4-amine] | 124 | 60 |
| CC(C)c1ccccc1-c1ncc(C#N)c(NCc2ccc(-c3nc(C(F)(F)F)cn3C)cc2)n1 [Example 39, 2-(2-Isopropylphenyl)-4-((4-(1-methyl-4-(trifluoromethyl)-1H-imidazol-2-yl)benzyl)amino)pyrimidine-5-carbonitrile] | 56.9 | 2.8 |
| COc1ncnc(C2CC2)c1-c1ncc(OC(C)C)c(N(C)CC2CCN(c3nc(C(F)(F)F)cn3C)CC2)n1 [Example 108, 4'-Cyclopropyl-5-isopropoxy-6'-methoxy-N-methyl-N-((1-(1-methyl-4-(trifluoromethyl)-1H-imidazol-2-yl)piperidin-4-yl)methyl)-[2,5'-bipyrimidin]-4-amine] | 353 | 19.7 |
| COc1cc(-c2nc(C(F)(F)F)cn2C)ccc1CNc1nc(-c2c(OC)ncnc2C2CC2)nc2ccoc12 [Example 119, 2-(4-Cyclopropyl-6-methoxypyrimidin-5-yl)-N-(2-methoxy-4-(1-methyl-4-(trifluoromethyl)-1H-imidazol-2-yl)benzyl)furo[3,2-d]pyrimidin-4-amine] | 16.9 | 7.6 |
| CC(C)Oc1cnc(-c2ccccc2C(C)C)nc1NCC1CCN(c2nc(C(F)(F)F)cn2C)CC1 [Example 72, 5-Isopropoxy-2-(2-isopropylphenyl)-N-((1-(1-methyl-4-(trifluoromethyl)-1H-imidazol-2-yl)piperidin-4-yl)methyl)pyrimidin-4-amine] | 181 | 6.1 |
| COc1ncnc(C2CC2)c1-c1ncc2c(n1)N(C[C@H]1CC[C@H](c3nc(C(F)(F)F)cn3C)CC1)CCO2 [Example 22, 2-(4-Cyclopropyl-6-methoxypyrimidin-5-yl)-8-(((1r,4r)-4-(1-methyl-4-(trifluoromethyl)-1H-imidazol-2-yl)cyclohexyl)methyl)-7,8-dihydro-6H-pyrimido[5,4-b][1,4]oxazine] | 209 | 24.4 |

Further lines, results first:

| IC50 (MDA-MB-436) [nM] | IC50 [1] [nM] | SMILES |
| --- | --- | --- |
| 23.6 | 1 | Cn1cc(C(F)(F)F)nc1-c1ccc(CNc2nc(-c3ccccc3C3CC3)nc3ccoc23)cc1 [Example 173, 2-(2-Cyclopropylphenyl)-N-(4-(1-methyl-4-(trifluoromethyl)-1H-imidazol-2-yl)benzyl)furo[3,2-d]pyrimidin-4-amine] |
| 5.1 | 1.2 | Cc1cc(C(F)(F)F)nn1-c1ccc(CNc2nc(-c3c(Cl)cnn3C(C)C)nc3ccoc23)cc1 [Example 168, 2-(4-Chloro-1-isopropyl-1H-pyrazol-5-yl)-N-(4-(5-methyl-3-(trifluoromethyl)-1H-pyrazol-1-yl)benzyl)furo[3,2-d]pyrimidin-4-amine] |
| 5.6 | 3.2 | COc1cnc(-c2c(C)cnn2C2CC2)nc1N(C)Cc1ccc(-c2nc(C(F)(F)F)cn2C)cc1 [Example 198, 2-(1-Cyclopropyl-4-methyl-1H-pyrazol-5-yl)-5-methoxy-N-methyl-N-(4-(1-methyl-4-(trifluoromethyl)-1H-imidazol-2-yl)benzyl)pyrimidin-4-amine] |
| 10.7 | 4.3 | COc1cnc(-c2c(Cl)cnn2C2CC2)nc1N(C)Cc1ccc(-c2nc(C(F)(F)F)cn2C)cc1 [Example 191, 2-(4-Chloro-1-cyclopropyl-1H-pyrazol-5-yl)-5-methoxy-N-methyl-N-(4-(1-methyl-4-(trifluoromethyl)-1H-imidazol-2-yl)benzyl)pyrimidin-4-amine] |
| 4.7 | 6 | COc1cnc(-c2c(OC)ncnc2C2CC2)nc1N(C)C[C@H]1CC[C@H](c2nc(C(F)(F)F)cn2C)CC1 [Example S21] |

Source: patent publication EP4741386A1 (Jiangsu Yahong Meditech Co., Ltd., priority 2023, dated 2025)
